From publication PMC12191924, “A new naphthalene-based fluorogenic substrate for cytochrome P450 4A11” (Biochemical Journal, 2025)

Biological target: T1, CYP2C8 (Homo sapiens, UniProt P10632)
T1 construct: purchased Gentest (Huntsville, AL), now a part of Discovery Life Sciences lot 81760; host or cells: insect cells, recombinant baculovirus
T1 sequence (P10632 1-490): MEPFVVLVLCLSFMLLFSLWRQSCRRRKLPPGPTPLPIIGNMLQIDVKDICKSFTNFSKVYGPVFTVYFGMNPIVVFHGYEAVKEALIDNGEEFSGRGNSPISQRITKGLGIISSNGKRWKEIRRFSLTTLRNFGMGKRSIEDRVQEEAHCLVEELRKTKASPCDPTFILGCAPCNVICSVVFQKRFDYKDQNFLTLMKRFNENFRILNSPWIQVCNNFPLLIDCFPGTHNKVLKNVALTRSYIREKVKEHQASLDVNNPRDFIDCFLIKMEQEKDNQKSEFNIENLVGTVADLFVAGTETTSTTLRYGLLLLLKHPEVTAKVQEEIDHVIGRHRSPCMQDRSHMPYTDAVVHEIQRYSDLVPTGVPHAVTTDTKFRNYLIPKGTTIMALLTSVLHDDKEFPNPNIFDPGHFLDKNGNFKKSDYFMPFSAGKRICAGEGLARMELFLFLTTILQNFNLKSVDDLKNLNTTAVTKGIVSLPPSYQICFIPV
Experiment: MONACRA demethylation by recombinant CYP2C8 in Supersomes, high-throughput fluorimetric assay
Type: biochemical
Procedure: Based on these observations, we developed a high-throughput automated assay applicable for studying SSPs of MONACRA metabolism by microsomal P450 enzymes. In this procedure, the incubation mixtures containing an NADPH-generating system and various substrate concentrations are placed in a multiwell plate and preincubated at 30°C in a thermostated shaker. The reaction is started by adding microsomal suspension to the final concentration of 0.3–1 mg/ml of microsomal protein or 0.02–0.1 µM of recombinant P450 enzymes in Supersomes. Following the incubation for 20 min at 30°C, the reaction is quenched by adding trichloroacetic acid (final concentration […]). After supplementing the wells with Na-glycine buffer (pH 10.4, final concentration 2.1 M), the plates are subjected to scanning the fluorescence spectra with excitation at 375 nm. This assay, which is described in detail in Materials and Methods, allows reliable detection of the concentrations of HONACRA as low as 0.1 µM.
We used the high-throughput activity assay described above to probe MONACRA metabolism by 16 human microsomal P450 enzymes, namely CYP1A2, CYP2A6, CYP2B6, CYP2C8, CYP2C9, CYP2C19, CYP2D6, CYP2E1, CYP2J2, CYP3A4, CYP3A5, CYP4A11, CYP4F2, CYP4F3A, CYP4F3B, and CYP4F12. […]

- rate of MONACRA metabolism by CYP2C8: negligibly small
Compound: COc1ccc2cc(C=CC(=O)O)ccc2c1 [MONACRA, 3-(6-methoxynaphthalen-2-yl)acrylic acid]
